Data published in patent publication US6579880B2, “Isoxazoles and oxadiazoles as anti-inflammatory inhibitors of IL-8” (Ortho-McNeil Pharmaceutical, Inc., priority 2000, dated 2003).

system: IL-8 receptor (purified human neutrophils); assay: radio labeled IL-8 receptor binding assay in purified human neutrophils using I125-IL-8 as ligand; details: Table 1; inhibition of I125-IL-8 (0.125 nM) binding to human neutrophils, 37° C. 60 minutes; read-out: IC50
Procedure: Neutrophils are purified from fresh human blood by dextran sedimentation in an equal volume of 3% dextran in saline for 30 minutes. After sedimentation, the blood is centrifuged for 10 minutes at 1000 rpm at 4° C. and the supernate is aspirated and discarded. […] Ten mls ficoll is underlaid of the blood and the sample is centrifuged for 40 minutes at 1400 rpm at 25° C. After centrifugation, the supernate is removed and the cells re-suspended for cell counting. Cell volume is adjusted to 8×10^5 cells/ml in binding buffer without BSA.
The plates are then incubated at 37° C. for 60 minutes and the supernate is aspirated to within 2 mm of the bottom of the well. The plates are then sealed and counted for 1 minute in a Packard TopCount.
Drug treated wells are compared to vehicle treated wells for inhibition of binding as determined by a decrease in dpm as compared to the vehicle wells.
% Inhibition is calculated as follows: [formula]
IC50 is calculated using K-Graph.

Compound | IC50 [µM]
Clc1ccc(-c2noc(-c3ccc(OCCCN4CCNCC4)cc3)n2)cc1 [Compound 15, piperazine, 1-[3-[4-[3-(4-chlorophenyl)-1,2,4-oxadiazol-5-yl]phenoxy]propyl]-] | 2.8
CN1CCN(CCCOc2ccc(-c3cc(-c4ccc(Cl)c(C(F)(F)F)c4)no3)cc2)CC1 [Compound 8, piperazine, 1-[3-[4-[3-[4-chloro-3-(trifluoromethyl)phenyl]-5-isoxazolyl]phenoxy]propyl]-4-methyl-] | 2.7
CN1CCN(CCCOc2ccc(-c3cc(-c4ccc(C(C)(C)C)cc4)no3)cc2)CC1 [Compound 4, piperazine, 1-[3-[4-[3-[4-(1,1-dimethylethyl)phenyl]-5-isoxazolyl]phenoxy]propyl]-4-methyl-] | 2.7

same assay, conditions: Table 2; inhibition of I125-IL-8 (0.125 nM) binding to human neutrophils, 37° C. 60 minutes; read-out: IC50

Compound | IC50 [µM]
CN1CCN(CCCOc2ccc(-c3cc(-c4ccccc4)on3)cc2)CC1 [Compound 25] | 6.2
CN1CCN(CCCCOc2ccc(-c3cc(-c4ccc(Cl)cc4)on3)cc2)CC1 [Compound 39] | 8.9
Cc1ccc(-c2cc(-c3cccc(OCCCN(C)C)c3)no2)cc1 [Compound 33] | 5.1
CN1CCN(CCCOc2ccccc2-c2cc(-c3ccccc3)on2)CC1 [Compound 35] | 12.1
Cc1ccc(-c2cc(-c3ccc(OCCCN(C)C)cc3)no2)cc1 [Compound 19] | 5.1
CN(C)CCCOc1ccc(-c2cc(-c3ccc(F)cc3)on2)cc1 [Compound 22] | 3.1
CN(C)CCCOc1cccc(-c2cc(-c3ccc(Cl)cc3)on2)c1 [Compound 32] | 8.1
CN(C)CCCOc1ccc(-c2noc(-c3ccccc3)c2Cl)cc1 [Compound 29] | 6
CCN(CC)CCCOc1ccccc1-c1cc(-c2ccccc2)on1 [Compound 37] | 6.5
CN1CCN(CCCOc2ccccc2-c2cc(-c3ccc(Cl)cc3)on2)CC1 [Compound 36] | 5.6
CN(C)CCCOc1cccc(-c2cc(-c3ccccc3)on2)c1 [Compound 34] | 10.3
CN(C)CCCOc1ccc(-c2noc(-c3ccccc3)c2Br)cc1 [Compound 28] | 10.9
CN1CCN(CCCOc2ccc(-c3cc(-c4ccc(Cl)cc4)on3)cc2)CC1 [Compound 27, piperazine, 1-[3-[4-[5-(4-chlorophenyl)-3-isoxazolyl]phenoxy]propyl]-4-methyl-] | 1.6
CN(C)CCCOc1ccc(-c2cc(-c3ccc(Cl)cc3)on2)cc1 [Compound 21, 1-propanamine, 3-[4-[5-(4-chlorophenyl)-3-isoxazolyl]phenoxy]-N, N-dimethyl-] | 2.7
CN(C)CCCOc1ccccc1-c1cc(-c2ccc(Cl)cc2)on1 [Compound 38] | 4.4

The remaining lines, values ahead:

IC50 [µM] | Compound
11 | CN1CCN(CCCCOc2ccccc2-c2cc(-c3ccc(Cl)cc3)on2)CC1 [Compound 41]
3.9 | CN(C)CCCCOc1ccc(-c2cc(-c3ccc(Cl)cc3)on2)cc1 [Compound 40]

same assay, conditions: Table 3; inhibition of I125-IL-8 (0.125 nM) binding to human neutrophils, 37° C. 60 minutes; read-out: IC50

Compound | IC50 [µM]
CN1CCCC(COc2ccc(-c3cc(-c4ccccc4)on3)cc2)C1 (stereo not shown) [Compound 43] | 5.3
CN1CCC(Oc2ccc(-c3cc(-c4ccccc4)on3)cc2)CC1 [Compound 44] | 7.6

same assay, conditions: Table 4; inhibition of I125-IL-8 (0.125 nM) binding to human neutrophils, 37° C. 60 minutes; read-out: IC50

Compound | IC50 [µM]
CN1CCN(CCCNC(=O)c2ccc(-c3cc(-c4ccc(Cl)cc4)on3)cc2)CC1 [Compound 46] | 6.1
CN(C)CCCNC(=O)c1ccc(-c2cc(-c3ccc(Cl)cc3)on2)cc1 [Compound 45] | 5.8
COc1ccc(-c2cc(-c3ccc(C(=O)NCCCN(C)C)cc3)no2)cc1 [Compound 48] | 18.1

same assay, conditions: Table 6; inhibition of I125-IL-8 (0.125 nM) binding to human neutrophils, 37° C. 60 minutes; read-out: IC50

Compound | IC50 [µM]
CN(C)CCCOc1ccc(-c2nc(-c3ccc(Cl)cc3)no2)cn1 [Compound 55] | 4.78
CN(C)CCCNc1ccc(-c2nc(-c3ccc(Cl)cc3)no2)cn1 [Compound 54, 1,3-propanediamine, N^1-[5-[3-(4-chlorophenyl)-1,2,4-oxadiazol-5-yl]-2-pyridinyl]-N^3, N^3-dimethyl-] | 5.35

same assay, conditions: unlabelled IL-8 as standard in the I125-IL-8 binding assay; read-out: IC50 of standard antagonist

Compound | IC50 [µM]
Unlabelled IL-8: Unlabelled IL-8 (Interleukin-8, chemotactic cytokine) serves as the standard antagonist in the binding assay [reference compound] | ~0.001
